Measurements: patent publication US9364479B2, “Use of a receptor-type kinase modulator for treating polycystic kidney disease” (SYMPHONY EVOLUTION, INC., priority 2010, dated 2016)
Marks after values point to notes of the source that are not given here.

Columns and labels:
c-Kit = c-Kit (Homo sapiens, UniProt P10721); test: c-Kit autophosphorylation ELISA, transfected HeLa cells; type: cell-based; parameters: expressed in transfected cells; host or cells: HeLa; settings: read-out: Cellular IC50, autophosphorylation
Procedure: The c-Kit autophosphorylation ELISA utilized HeLa (ATCC) cells. Cells were seeded at 6×10^5 cells/well onto 100 mm dish. 24 hours later, HeLa cells were transfected with a mammalian expression plasmid containing a CMV promoter operably linked to the open reading frame of human c-kit with a Flag epitope tag on the C-terminus 24 hours later, c-Kit transfected HeLa cells were trypsinized and re-seeded at 6×10^3 cells/well into 96-well microtiter plates (Costar 3904), in DMEM (Cellgro) containing 10% FBS (Heat-Inactivated, Hyclone), 1% penicillin-streptomycin (Cellgro), and 1% NEAA solution (Cellgro). The cells were then incubated at 37° C., 5% CO2 for 24 hr. […] Negative control wells were left unstimulated. Following stimulation, media was removed, the cell monolayer washed with cold PBS and immediately lysed with cold lysis buffer. Lysates were incubated in 96-well streptavidin-coated plates (Pierce) coated with biotin-conjugated, goat anti-human c-Kit (1 μg/ml, R&D Systems). Plates were washed 3× with TBST and incubated either with HRP-conjugated anti-phosphotyrosine (1:10,000, Zymed Laboratories, Inc) or HRP-conjugated anti-Flag(M2) (1:2,000, Sigma). Plates were washed again as described above followed by the addition of a luminol-based substrate solution and read with a Victor spectrophotometer (Wallac).

EMK = molecular target: T1, EMK (Homo sapiens, UniProt Q7KZI7); test: Chemiluminescent kinase assay; type: biochemical
T1 construct: His6 (N)
Procedure: (§1) Further screening was performed using the biochemical assay methods of Example 2. Additional description of the components and concentrations are summarized in Table 8, Table 9, and Table 10, below.

MAP4K3 = molecular target: T2, MAP4K3 (Homo sapiens, UniProt Q8IVH8); test: Chemiluminescent kinase assay; type: biochemical
T2 construct: Kinase domain,; His6 (N)
Procedure: as §1

GSK3β = molecular target: T3, GSK3β (Homo sapiens, UniProt P49841); test: Chemiluminescent kinase assay; type: biochemical
T3 construct: His6 (N); purchased Upstate Biotechnology
Procedure: as §1

[1] = system: Glycine, Strychnine-sensitive; test: NovaScreen assay; type: binding
in vitro = in vitro ADME, mouse and human; settings: rat, mouse, human, plasma
[2] = molecular target: T4, Angiotensin II, AT1 (Human) (Homo sapiens, UniProt P30556); test: NovaScreen assay; type: binding; settings: read-out: Inhibition, 10 μM XL-647
T4 construct: NovaScreen

[3] = system: HN5 human tumor xenograft; test: HN5 xenograft, tumor growth; type: in vivo; settings: Mus musculus; qd × 14
Procedure: (§2) The response of tumors to treatment was determined by comparing the mean tumor weight of the treatment group with the appropriate control group. Percentage inhibition of tumor growth was determined with the following formula: Percentage inhibition=100×[1−(Xf−Xo)/(Yf−Yo)], where Xf and Yf are the mean tumor weights of the treatment and control groups, respectively, on day f, and Xo and Yo are the mean tumor weights of treatment and control groups respectively, on day zero (staged tumor weights after grouping)

EGFR WT (pTet-On/Lx-1) = EGFR WT (pTet-On/Lx-1) (Homo sapiens, UniProt P00533); test: EGFR phosphorylation ELISA in transfected Lx-1 cells
Source text: Lx-1 cells were used because they lack background EGFR activity. A clone corresponding to the longest EGFR isoform (Genbank accession no. NM_005228.3/NP_005219.2 #21-176, Upstate Biotechnology) was used as a template to produce two mutant EGFR genes (coding for L858R and L861Q) by site-directed mutagenesis. The WT and the two sequence-verified mutants were transferred to a COOH-terminal Flag-tagged retroviral cytomegalovirus promoter-driven mammalian expression vector. The two Tet-On expression vectors, EGFR WT (Tet-On) and EGFRvIII (Tet-On), which were COOH-terminally Flag tagged, were generously provided by Dr. Abhijit Guha (University of Toronto, Toronto, Ontario, Canada).
Transient transfections of Lx-1 cells were done using Lipofectamine 2000 (Invitrogen) according to the manufacturer's protocol. For transfections of the WT, L858R, and L861Q constructs, 1 μg plasmid DNA was used for each transfection (each well of a 12-well plate). […]
For the EGFR phosphorylation ELISA, Reacti-Bind streptavidin-coated plates (Pierce) were coated with 2 μg/mL biotin-conjugated anti-Flag antibody (Sigma). […] Horseradish peroxidase activity was determined by reading the plates in a Victor2 plate reader following addition of the ELISA Femto substrate.

Phospho-EGFR Tyr1068 = molecular target: T5, Phospho-EGFR Tyr1068 (Homo sapiens, UniProt P00533, L858R/T790M); test: Immunohistochemical analysis of phosphorylation in H1975 xenografts; type: in vivo, mouse; settings: 14-day dosing
T5 construct: host or cells: H1975 (cultured cells; s.c. xenografts in mice)
Procedure: For immunohistochemical analysis of H1975, MDA-MB-231 and other xenografts, tumors were excised after euthanasia and fixed in zinc fixative (BD Biosciences) for 48 h before being processed into paraffin blocks. Serial sections at 5 μm were obtained from the area of largest possible surface for each tumor and stained using standard methods. The following antibodies were used: Ki67 (SP6; Labvision), CD31 (MECA.32; BD Biosciences), pERK^Thr202/Tyr204 (phospho-p44/42 mitogen-activated protein kinase; Cell Signaling Technology), pAKT^Ser473 (Cell Signaling Technology), and pEGFR^Tyr1068 (Cell Signaling Technology). For immunofluorescent staining, sections were then incubated with Alexa 594-conjugated goat anti-rabbit secondary antibody (Invitrogen) and mounted in Fluorescent Mounting Medium (DAKO) containing 4′,6-diamidino-2-phenylindole (Molecular Probes) as a nuclear counterstain. Fluorescent staining was visualized using a Zeiss Axiolmager and digitally captured using a Zeiss high-resolution camera coupled to AxioVision image analysis software. Two to three nonoverlapping representative fields were captured at ×200 or ×400 magnification depending on histologic readout and quantified using the integrated morphometric analysis functions in Metamorph software (Universal Imaging Corp.). Apoptotic cells were detected using terminal deoxynucleotidyl transferase-mediated dUTP nick end labeling in situ cell death detection kit according to the manufacturer's instructions (Roche Diagnostics GmbH).
Results are presented as mean±SD or SE as indicated for each graph or table. For IC50 comparison in the A431 cell viability experiment, two sample Student's t tests were applied to determine P values for each IC50 pair assuming that the random fluctuations of replicates around the dose-response curve are distributed [log]normally with the individual replicates used as the ‘sample size’ for the t test (nine point dose response done in triplicate).

[4] = molecular target: T6, Muscarinic, M1 (Human Recombinant) (Homo sapiens, UniProt P11229); test: NovaScreen assay; type: binding
T6 construct: NovaScreen

[5] = system: PC-3 human tumor xenograft; test: PC-3 xenograft, tumor growth; type: in vivo; settings: Mus musculus; qd × 28
Procedure: as §2

[6] = molecular target: T7, Monoamine Oxidase A, Peripheral (Rattus norvegicus, UniProt P21396); test: NovaScreen assay; type: biochemical; settings: read-out: Inhibition, 10 μM XL-647
T7 construct: NovaScreen

in vivo = test: in vivo; parameters: species or system mice, rats, dogs, and monkeys
Procedure: The nonclinical Pharmacokinetics (PK) of XL-647 was studied in mice, rats, dogs, and monkeys. Animals were dosed either once or daily over several days, as described in Table 21 and 22 below. A summary of results can also be found in Tables 21 and 22 below. […] Mean tmax values were approximately 4 to 8 hours, and plasma terminal half-lives ranged from 9.41 to 20.9 hours.

T6 sequence (P11229 whole entry): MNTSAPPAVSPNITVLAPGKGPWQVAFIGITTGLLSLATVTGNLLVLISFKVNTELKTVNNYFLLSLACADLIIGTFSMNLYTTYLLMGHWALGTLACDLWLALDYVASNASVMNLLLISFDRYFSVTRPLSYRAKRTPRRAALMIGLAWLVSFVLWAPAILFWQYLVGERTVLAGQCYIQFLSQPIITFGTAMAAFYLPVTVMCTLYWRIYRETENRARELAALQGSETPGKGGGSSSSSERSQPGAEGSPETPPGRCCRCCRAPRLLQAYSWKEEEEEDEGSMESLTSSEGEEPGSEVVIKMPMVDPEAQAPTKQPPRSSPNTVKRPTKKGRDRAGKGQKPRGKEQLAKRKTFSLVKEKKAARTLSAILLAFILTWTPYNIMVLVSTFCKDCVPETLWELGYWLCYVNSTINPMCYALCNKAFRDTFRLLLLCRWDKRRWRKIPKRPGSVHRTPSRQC
T7 sequence (P21396 whole entry): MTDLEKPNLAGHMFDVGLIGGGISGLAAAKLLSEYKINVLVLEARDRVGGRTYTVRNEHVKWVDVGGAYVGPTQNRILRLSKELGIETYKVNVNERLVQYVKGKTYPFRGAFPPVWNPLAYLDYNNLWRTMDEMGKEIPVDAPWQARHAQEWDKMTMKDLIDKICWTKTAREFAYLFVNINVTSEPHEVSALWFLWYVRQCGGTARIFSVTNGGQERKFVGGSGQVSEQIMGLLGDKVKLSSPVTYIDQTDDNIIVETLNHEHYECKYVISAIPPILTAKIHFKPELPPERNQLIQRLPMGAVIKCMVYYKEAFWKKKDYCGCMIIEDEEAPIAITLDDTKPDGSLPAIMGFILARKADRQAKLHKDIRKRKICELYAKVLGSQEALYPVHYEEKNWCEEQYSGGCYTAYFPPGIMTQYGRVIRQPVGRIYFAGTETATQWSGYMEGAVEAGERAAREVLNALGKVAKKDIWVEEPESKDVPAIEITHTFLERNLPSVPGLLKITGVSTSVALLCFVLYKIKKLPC
T3 sequence (P49841 whole entry): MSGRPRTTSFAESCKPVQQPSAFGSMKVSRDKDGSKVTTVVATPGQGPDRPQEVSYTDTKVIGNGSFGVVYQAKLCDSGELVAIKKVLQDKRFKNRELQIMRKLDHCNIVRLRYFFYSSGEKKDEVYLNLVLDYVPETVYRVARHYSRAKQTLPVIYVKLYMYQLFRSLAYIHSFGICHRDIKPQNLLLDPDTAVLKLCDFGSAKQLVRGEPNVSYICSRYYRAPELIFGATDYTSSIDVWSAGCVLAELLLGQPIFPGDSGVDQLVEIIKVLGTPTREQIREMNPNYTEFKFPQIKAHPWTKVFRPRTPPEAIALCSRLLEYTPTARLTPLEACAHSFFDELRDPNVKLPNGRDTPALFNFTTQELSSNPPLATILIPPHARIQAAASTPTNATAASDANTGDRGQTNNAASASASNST
Chain of c-Kit (P10721 26-976): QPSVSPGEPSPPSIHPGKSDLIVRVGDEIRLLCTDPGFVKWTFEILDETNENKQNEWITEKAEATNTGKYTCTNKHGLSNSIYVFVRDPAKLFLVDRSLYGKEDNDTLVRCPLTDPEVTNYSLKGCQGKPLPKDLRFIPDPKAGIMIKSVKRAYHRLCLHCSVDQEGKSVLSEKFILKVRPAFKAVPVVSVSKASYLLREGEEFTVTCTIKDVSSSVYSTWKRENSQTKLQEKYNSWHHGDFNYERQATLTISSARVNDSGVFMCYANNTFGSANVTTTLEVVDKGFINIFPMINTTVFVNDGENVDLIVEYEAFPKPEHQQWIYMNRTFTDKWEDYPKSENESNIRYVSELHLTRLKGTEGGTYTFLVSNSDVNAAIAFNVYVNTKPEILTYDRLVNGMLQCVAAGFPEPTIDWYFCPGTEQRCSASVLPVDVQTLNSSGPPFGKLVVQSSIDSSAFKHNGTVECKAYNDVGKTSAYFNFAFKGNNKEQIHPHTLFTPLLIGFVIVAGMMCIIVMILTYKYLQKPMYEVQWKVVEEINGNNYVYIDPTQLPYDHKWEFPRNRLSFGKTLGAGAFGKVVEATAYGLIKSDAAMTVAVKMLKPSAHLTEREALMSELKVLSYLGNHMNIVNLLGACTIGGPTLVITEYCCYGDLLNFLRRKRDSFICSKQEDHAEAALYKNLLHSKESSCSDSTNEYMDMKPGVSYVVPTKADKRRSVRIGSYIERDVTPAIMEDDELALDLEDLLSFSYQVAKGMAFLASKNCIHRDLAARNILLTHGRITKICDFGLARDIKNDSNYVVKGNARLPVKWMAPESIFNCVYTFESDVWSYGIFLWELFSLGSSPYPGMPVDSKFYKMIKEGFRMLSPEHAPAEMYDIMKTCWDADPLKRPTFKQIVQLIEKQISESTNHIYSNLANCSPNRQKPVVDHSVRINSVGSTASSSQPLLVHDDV
T2 sequence (Q8IVH8 16-273 limits assumed, species assumed): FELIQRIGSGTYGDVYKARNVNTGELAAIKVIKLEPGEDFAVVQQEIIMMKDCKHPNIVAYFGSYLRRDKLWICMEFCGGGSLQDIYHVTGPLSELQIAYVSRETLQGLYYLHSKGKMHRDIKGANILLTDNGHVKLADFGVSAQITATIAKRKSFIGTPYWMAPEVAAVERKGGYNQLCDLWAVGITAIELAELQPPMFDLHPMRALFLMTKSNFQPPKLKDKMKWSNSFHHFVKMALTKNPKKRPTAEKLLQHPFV
T1 sequence (Q7KZI7 whole entry): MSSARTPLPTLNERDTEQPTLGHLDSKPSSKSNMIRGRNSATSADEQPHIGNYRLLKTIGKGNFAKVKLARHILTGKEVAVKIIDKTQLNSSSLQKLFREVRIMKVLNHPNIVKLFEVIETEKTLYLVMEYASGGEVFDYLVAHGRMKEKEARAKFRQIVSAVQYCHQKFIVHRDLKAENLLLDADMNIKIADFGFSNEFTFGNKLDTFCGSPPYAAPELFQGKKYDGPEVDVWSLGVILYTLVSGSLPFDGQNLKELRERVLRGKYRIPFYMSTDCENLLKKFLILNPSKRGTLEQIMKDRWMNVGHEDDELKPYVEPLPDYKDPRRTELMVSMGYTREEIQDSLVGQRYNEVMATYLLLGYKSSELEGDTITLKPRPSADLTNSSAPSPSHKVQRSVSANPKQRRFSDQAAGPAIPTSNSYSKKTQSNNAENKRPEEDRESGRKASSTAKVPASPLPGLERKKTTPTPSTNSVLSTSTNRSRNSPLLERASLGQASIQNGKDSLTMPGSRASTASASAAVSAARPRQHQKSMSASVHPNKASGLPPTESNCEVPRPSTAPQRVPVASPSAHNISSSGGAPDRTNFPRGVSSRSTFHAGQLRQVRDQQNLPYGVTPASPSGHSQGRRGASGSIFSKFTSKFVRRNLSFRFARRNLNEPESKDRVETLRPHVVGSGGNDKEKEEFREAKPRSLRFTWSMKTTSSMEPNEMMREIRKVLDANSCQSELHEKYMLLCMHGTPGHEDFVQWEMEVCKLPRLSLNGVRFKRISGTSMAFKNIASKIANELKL
T4 sequence (P30556 whole entry): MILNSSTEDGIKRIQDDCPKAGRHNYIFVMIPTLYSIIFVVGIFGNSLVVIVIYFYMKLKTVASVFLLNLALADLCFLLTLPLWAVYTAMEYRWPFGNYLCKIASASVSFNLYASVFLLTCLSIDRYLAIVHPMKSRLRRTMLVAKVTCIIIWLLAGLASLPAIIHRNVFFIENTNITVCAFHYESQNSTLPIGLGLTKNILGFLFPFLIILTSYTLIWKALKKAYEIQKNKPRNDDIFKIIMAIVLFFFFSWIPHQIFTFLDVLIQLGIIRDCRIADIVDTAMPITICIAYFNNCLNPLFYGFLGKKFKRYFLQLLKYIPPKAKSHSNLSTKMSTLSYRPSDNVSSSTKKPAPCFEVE

Which IC50 (c-Kit) does the source give for `COc1cc2c(Nc3ccc(Cl)c(Cl)c3F)ncnc2cc1OC[C@@H]1C[C@@H]2CN(C)C[C@@H]2C1` [XL-647, N-(3,4-dichloro-2-fluorophenyl)-7-({[(3aR,5r,6aS)-2-methyloctahydrocyclopenta[c]pyrrol-5-yl]methyl}oxy)-6-(methyloxy)quinazolin-4-amine] here?
The IC50 was 90 nM.

What about the IC50 (EMK) of the same molecule?
The IC50 was > 10000 nM.

What about the IC50 (MAP4K3) of the same molecule?
The IC50 was > 1000 nM.

And the IC50 (GSK3β)?
The IC50 was > 1000 nM.

And the “Inhibition, 10 μM XL-647” value [1]?
The value was 12.95%.

And the fraction unbound (in vitro)?
The fraction unbound was 0.04 to 0.09.

What about the inhibition at 10 µM [2] of the same molecule?
Its inhibition at 10 µM is 6.85%.

What about the ED50 [3] of the same molecule?
The ED50 was < 3 mg/kg.

And the IC50 (EGFR WT (pTet-On/Lx-1))?
The IC50 was 5 nM.

And the “Phospho-EGFR Tyr1068 % Cells” value (Phospho-EGFR Tyr1068; 10 mg/kg)?
The value was 14 ± 1.9%.

And the “Phospho-EGFR Tyr1068 % Reduction” value (Phospho-EGFR Tyr1068; 10 mg/kg)?
The value was 49.0^a %.

What about the “Phospho-EGFR Tyr1068 % Cells” value (Phospho-EGFR Tyr1068; 30 mg/kg) of the same molecule?
The value was 12 ± 1.3%.

And the “Phospho-EGFR Tyr1068 % Reduction” value (Phospho-EGFR Tyr1068; 30 mg/kg)?
The value was 56.1^a %.

And the “Phospho-EGFR Tyr1068 % Cells” value (Phospho-EGFR Tyr1068; 100 mg/kg)?
Its value is 10 ± 1.8%.

And the “Phospho-EGFR Tyr1068 % Reduction” value (Phospho-EGFR Tyr1068; 100 mg/kg)?
The value was 63.7^a %.

What about the IC50 [4] of the same molecule?
The IC50 was 2330 nM.

What about the inhibition at 10 µM ([4]; read-out: Inhibition, 10 μM XL-647) of the same molecule?
Its inhibition at 10 µM is 98.1%.

What about the ED50 [5] of the same molecule?
The ED50 was 34 mg/kg.

And the inhibition at 10 µM [6]?
The inhibition at 10 µM was 1.66%.

And the accumulation in plasma (in vivo)?
Its accumulation in plasma is < 2 fold.

What about the “dose proportionality of AUC, in words” value (in vivo) of the same molecule?
Its value is “approximately dose proportionally over lower dose ranges”.

What about the bioavailability (in vivo; dog, po) of the same molecule?
Its bioavailability is 63 to 74%.

And the Tmax (in vivo; mouse, rat, dog, monkey)?
The Tmax was 4 to 8 h.

What about the half-life (in vivo; mouse, rat, dog, monkey) of the same molecule?
Its half-life is 9.41 to 20.9 h.

What about the volumes of distribution (in vivo; mouse, rat, dog, monkey, iv) of the same molecule?
Its volumes of distribution is > 18 L/kg.

And the “oral bioavailability, in words” value (in vivo; po)?
The value was “orally bioavailable in mice, rats and dogs”.
